Assay results: patent US20050131739A1, “Methods for monitoring severity of panic attacks and other rapidly evolving medical events in real time” (Alexza Molecular Delivery Corporation, priority 2003, published 2005)

Tested on: acute panic attacks in patients with panic disorder
Experiment: Double-blind, randomized, placebo-controlled clinical trial of alprazolam delivered by inhalation; panic recorded with patient experience diary (PED)
Format: in vivo
Details: for mean peak panic severity / mean panic severity at 12 minutes: 11-point visual analogue scale; for mean panic severity at 12 minutes: 12 minutes following use of the inhaler
Description: To determine the efficacy of alprazolam delivered by inhalation in the treatment of acute panic attacks, a clinical trial is conducted. The objectives of the trial are to determine the effectiveness of alprazolam delivered by inhalation at the time of onset of panic symptoms in decreasing the duration and/or severity of acute panic attacks in patients with panic disorder. The duration and severity of acute panic symptoms are measured using a patient experience diary (PED) for the real time assessment of severity of panic attacks. Patients are recruited for the study by posting in various public locations and medical clinics advertisements seeking patients who experience 2 or more panic attacks per week for participation in the study. To enroll patients who have not previously been treated for panic, the advertisement may include a description of panic symptoms, so that patients who experience panic attacks without being aware that such attacks constitute a medical condition are encouraged to volunteer.
The overall study design is a double-blind, randomized, placebo-controlled clinical trial. Patients 18-65 years of age reporting at least 2 panic attacks per week, without history of psychotic disorders, substance abuse disorders, dementia, or severe or life-threatening medical disorders such as serious heart or lung disease, eligible for the study. Patients not currently on medication for panic disorder, as well as patients currently using a stable dose of selective serotonin reuptake inhibitor (SSRI) the treatment of panic disorder are eligible for the study, as are patients currently taking alprazolam or other benzodiazepines on a PRN basis, if the patients agree not to use such drugs during the study period. Patients using chronic benzodiazepines or other sedative hypnotics for the treatment of panic disorder are excluded from the study, as are patients using psychotropic medications other than SSRIs or unstable SSRI doses. Eligible patients are enrolled in the study after being explained the risks and benefits of the study and signing informed consent.
The patients are then trained in use of the PED described in Examples 1 and 2 above, set to an every 3 minute prompting interval. After being trained in use of the PED, the patients then take the PED home for 3 weeks of use. During these 3 weeks, patients must record at least one panic attack per week in the diary of duration greater than 12 minutes (time from initial diary entry until the patient answers “not at all” to the item regarding the severity of their panic symptoms right now) to proceed to the randomization point in the study. Patients recording less than one panic attack per week, only very brief (less than 12 minute duration panic attacks), or having difficulty using the diary are dropped from the study. At this point, continuing patients are randomized to receive placebo inhaler, inhaler dispensing alprazolam 0.25 mg as an aerosol having an approximately 2 μm mass median aerodynamic diameter (MMAD), or inhaler dispensing alprazolam 0.5 mg as an aerosol having an approximately 2 μm MMAD. Patients are given four identical inhalers each, and instructed to use the inhalers at the time of their next 4 panic attacks (only 1 inhaler per attack). In particular, the patients are instructed to start the PED at the initiation of panic symptoms before taking their medication, to take the medication when prompted by the PED, and then to record the course of the panic attack after taking the medication as prompted by the PED.
Data from the 4 panic attacks during which the inhaler is used as panic treatment are recorded in the PED and transmitted to a central data storage site. The data is analyzed after each patient records 4 panic attacks, or after 8 weeks passes from the time the patient received the inhalers. […]

Cc1nnc2n1-c1ccc(Cl)cc1C(c1ccccc1)=NC2 [alprazolam, 8-chloro-1-methyl-6-phenyl-4H-[1,2,4]triazolo[4,3-α] [1,4]benzodiazepine]
mean peak panic severity (alprazolam 0.25 mg by inhaler): 6 | mean panic severity at 12 minutes (alprazolam 0.25 mg by inhaler): 3 out of 10 | mean peak panic severity (alprazolam 0.5 mg by inhaler): 6 | mean panic severity at 12 minutes (alprazolam 0.5 mg by inhaler): 1.5 out of 10 | mean duration of panic (patients receiving alprazolam 0.25 mg by inhaler (aerosol, approx. 2 μm MMAD) at onset of panic attack): 20 min | mean duration of panic (patients receiving alprazolam 0.5 mg by inhaler (aerosol, approx. 2 μm MMAD) at onset of panic attack): 10 min
